Key:
Type in all cases: in vivo
Alfalfa [1] = assay: Greenhouse Test 1: weed control by 2,4-D with surfactants
Text: In a first series of Examples, the following compounds are utilized to evaluate the efficacy of various herbicides in combination with various surfactants against two types of weeds: • Herbicides: […]; dicamba; and glufosinate • Surfactants: Glycerol Monosoyate+10EO; • Glycerol Monosoyate+15EO; • Glycerol Monosoyate+20EO; • Glycerol Monosoyate+30EO; • Glycerol Monosoyate+50EO; • Soybean oil+20EO; • Reference 1—Polyoxyethylene (20) sorbitan monolaurate • Reference 2—Sodium lauryl ether sulfate The following test protocol is used:
(§1) Data is collected at end of each week for 4 weeks.

Alfalfa [2] = assay: Greenhouse Test 1: weed control by dicamba with surfactants
Text: (§2) In a first series of Examples, the following compounds are utilized to evaluate the efficacy of various herbicides in combination with various surfactants against two types of weeds: • Herbicides: 2,4-D ester; dicamba; and glufosinate • Surfactants: Glycerol Monosoyate+10EO; • Glycerol Monosoyate+15EO; • Glycerol Monosoyate+20EO; • Glycerol Monosoyate+30EO; • Glycerol Monosoyate+50EO; • Soybean oil+20EO; • Reference 1—Polyoxyethylene (20) sorbitan monolaurate • Reference 2—Sodium lauryl ether sulfate The following test protocol is used:
as §1

Morning glory = assay: Greenhouse Test 1: weed control by glufosinate with surfactants
Text: as §2, §1

[3] = system: Anthracnose (Colletotrichum gloeosporioides); assay: Greenhouse Test 2: Thiophenate methyl 70% WP with surfactants against anthracnose of grapes; settings: Table C, summary in words
Text: (§3) In a second series of Examples, the following compounds are utilized to evaluate the efficacy of various fungicides in combination with various surfactants against fungi: • Fungicides: Hexaconazole 5% EC; Dimethomorph 50WP; Thiophenate methyl 70% WP; Azoxystrobin 23 SC • Surfactants: • Dioctyl sulfosuccinate • Alkoxylated glyceride with 20EO; • Alkoxylated glyceride with 50EO; • Siloxane Polyalkyleneoxide Copolymer • Fungi: • Powdery mildew (Erysiphenecator); • Downy mildew (Plasmopara viticola); • Anthracnose (Colletotrichum gloeosporioides); and • Early blight (Alternariasolani). The following test protocol is used:
(§4) There are 4 different fungicide formulations tested against 4 different pests (fungi). For each test there are untreated control (#1) and fungicide only w/o surfactant (#2). The same general protocol described above was used.
Percent Disease Index (PDI) for powdery mildew, downy mildew, anthracnose and early blight diseases were calculated by following formulae: […]
In case of grapes ratings on minimum ten leaves and a bunch were recorded on randomly selected canes. Ten such canes per plant were observed. The observations on 8 plants spread over four replication were recorded. Thus, the data presented on PDI is average of randomly selected 80 canes.

fungi = assay: Greenhouse Test 2: overall comparison over the 4 fungicide formulations and 4 fungi; settings: all 4 fungicide formulations; summary in words
Text: as §3, §4

[4] = Table 1A: 2,4-D DMA 91 g ae/A, surfactant 0.1%
[5] = Table 1B: 2,4-D DMA 91 g ae/A, surfactant 0.25%
[6] = Table 1C: 2,4-D DMA 91 g ae/A, surfactant 0.25% (so in the source)
[7] = Table 1D: 2,4-D DMA 91 g ae/A (so in the source), surfactant 0.25%
[8] = Table 2A: Dicamba 23 g ae/A, surfactant 0.1%
[9] = Table 2B: Dicamba 23 g ae/A, surfactant 0.25%
[10] = Table 2C: Dicamba 45 g ae/A, surfactant 0.1%
[11] = Table 2D: Dicamba 45 g ae/A, surfactant 0.25%
[12] = Table 3A: Glufosinate 3 oz/a, surfactant 0.25%
[13] = Table 3B: Glufosinate 3 oz/a, surfactant 0.5%
[14] = Table 3C: Glufosinate 6 oz/a, surfactant 0.25%
[15] = Table 3D: Glufosinate 6 oz/a, surfactant 0.50%

CNC.O=C(O)COc1ccc(Cl)cc1Cl [2,4-D DMA]
% weed control, 7 day (Alfalfa [1]; [4]): 0.0% | % weed control, 14 day (Alfalfa [1]; [4]): 0.0% | % weed control, 21 day (Alfalfa [1]; [4]): 27.5% | % weed control, 28 day (Alfalfa [1]; [4]): 32.5% | % weed control, 7 day (Alfalfa [1]; [5]): 0.0% | % weed control, 14 day (Alfalfa [1]; [5]): 0.0% | % weed control, 21 day (Alfalfa [1]; [5]): 27.5% | % weed control, 28 day (Alfalfa [1]; [5]): 32.5% | % weed control, 7 day (Alfalfa [1]; [6]): 0.0% | % weed control, 14 day (Alfalfa [1]; [6]): 7.5% | % weed control, 21 day (Alfalfa [1]; [6]): 57.5% | % weed control, 28 day (Alfalfa [1]; [6]): 57.5% | % weed control, 7 day (Alfalfa [1]; [7]): 0.0% | % weed control, 14 day (Alfalfa [1]; [7]): 7.5% | % weed control, 21 day (Alfalfa [1]; [7]): 57.5% | % weed control, 28 day (Alfalfa [1]; [7]): 57.5%

Sodium lauryl ether sulfate
% weed control, 7 day (Alfalfa [2]; [8]): 72.5% | % weed control, 14 day (Alfalfa [2]; [8]): 81.3% | % weed control, 21 day (Alfalfa [2]; [8]): 71.3% | % weed control, 28 day (Alfalfa [2]; [8]): 70.0% | % weed control, 7 day (Alfalfa [2]; [9]): 65.0% | % weed control, 14 day (Alfalfa [2]; [9]): 80.0% | % weed control, 21 day (Alfalfa [2]; [9]): 67.5% | % weed control, 28 day (Alfalfa [2]; [9]): 70.0% | % weed control, 7 day (Alfalfa [2]; [10]): 72.5% | % weed control, 14 day (Alfalfa [2]; [10]): 82.5% | % weed control, 21 day (Alfalfa [2]; [10]): 76.3% | % weed control, 28 day (Alfalfa [2]; [10]): 76.3% | % weed control, 7 day (Alfalfa [2]; [11]): 67.5% | % weed control, 14 day (Alfalfa [2]; [11]): 82.5% | % weed control, 21 day (Alfalfa [2]; [11]): 75.0% | % weed control, 28 day (Alfalfa [2]; [11]): 75.0% | % weed control, 7 day (Alfalfa [1]; [4]): 67.5% | % weed control, 14 day (Alfalfa [1]; [4]): 83.8% | % weed control, 21 day (Alfalfa [1]; [4]): 73.8% | % weed control, 28 day (Alfalfa [1]; [4]): 75.0% | % weed control, 7 day (Alfalfa [1]; [5]): 67.5% | % weed control, 14 day (Alfalfa [1]; [5]): 82.5% | % weed control, 21 day (Alfalfa [1]; [5]): 72.5% | % weed control, 28 day (Alfalfa [1]; [5]): 67.5% | % weed control, 7 day (Alfalfa [1]; [6]): 72.5% | % weed control, 14 day (Alfalfa [1]; [6]): 86.3% | % weed control, 21 day (Alfalfa [1]; [6]): 86.3% | % weed control, 28 day (Alfalfa [1]; [6]): 87.5% | % weed control, 7 day (Alfalfa [1]; [7]): 75.0% | % weed control, 14 day (Alfalfa [1]; [7]): 85.0% | % weed control, 21 day (Alfalfa [1]; [7]): 82.5% | % weed control, 28 day (Alfalfa [1]; [7]): 83.8% | % weed control, 7 day (Morning glory; [12]): 85.0% | % weed control, 14 day (Morning glory; [12]): 75.0% | % weed control, 21 day (Morning glory; [12]): 55.0% | % weed control, 28 day (Morning glory; [12]): 55.0% | % weed control, 7 day (Morning glory; [13]): 87.5% | % weed control, 14 day (Morning glory; [13]): 90.0% | % weed control, 21 day (Morning glory; [13]): 87.5% | % weed control, 28 day (Morning glory; [13]): 77.5% | % weed control, 7 day (Morning glory; [14]): 92.5% | % weed control, 14 day (Morning glory; [14]): 95.8% | % weed control, 21 day (Morning glory; [14]): 95.8% | % weed control, 28 day (Morning glory; [14]): 96.5% | % weed control, 7 day (Morning glory; [15]): 90.0% | % weed control, 14 day (Morning glory; [15]): 88.8% | % weed control, 21 day (Morning glory; [15]): 91.3% | % weed control, 28 day (Morning glory; [15]): 89.5%

CP(=O)(O)CCC(N)C(=O)O (centres unmarked) [Glufosinate]
% weed control, 7 day (Morning glory; [12]): 0.0% | % weed control, 14 day (Morning glory; [12]): 40.0% | % weed control, 21 day (Morning glory; [12]): 25.0% | % weed control, 28 day (Morning glory; [12]): 12.5% | % weed control, 7 day (Morning glory; [13]): 0.0% | % weed control, 14 day (Morning glory; [13]): 40.0% | % weed control, 21 day (Morning glory; [13]): 25.0% | % weed control, 28 day (Morning glory; [13]): 12.5% | % weed control, 7 day (Morning glory; [14]): 0.0% | % weed control, 14 day (Morning glory; [14]): 55.0% | % weed control, 21 day (Morning glory; [14]): 40.0% | % weed control, 28 day (Morning glory; [14]): 27.5% | % weed control, 7 day (Morning glory; [15]): 0.0% | % weed control, 14 day (Morning glory; [15]): 55.0% | % weed control, 21 day (Morning glory; [15]): 40.0% | % weed control, 28 day (Morning glory; [15]): 27.5%

CCCCCCCCOC(=O)CC(C(=O)OCCCCCCCC)S(=O)(=O)O (centres unmarked) [dioctyl sulfosuccinate, Dioctyl sulfosuccinate]
efficacy compared with alkoxylated glyceride with 20EO [3]: lack of efficacy as compared to the alkoxylated glyceride with 20EO | overall disease control with fungicides (fungi): overall good control in all cases

Polyoxyethylene (20) sorbitan monolaurate
% weed control, 7 day (Alfalfa [2]; [8]): 62.5% | % weed control, 14 day (Alfalfa [2]; [8]): 73.8% | % weed control, 21 day (Alfalfa [2]; [8]): 50.0% | % weed control, 28 day (Alfalfa [2]; [8]): 62.5% | % weed control, 7 day (Alfalfa [2]; [9]): 60.0% | % weed control, 14 day (Alfalfa [2]; [9]): 70.0% | % weed control, 21 day (Alfalfa [2]; [9]): 50.0% | % weed control, 28 day (Alfalfa [2]; [9]): 50.0% | % weed control, 7 day (Alfalfa [2]; [10]): 77.5% | % weed control, 14 day (Alfalfa [2]; [10]): 87.5% | % weed control, 21 day (Alfalfa [2]; [10]): 76.3% | % weed control, 28 day (Alfalfa [2]; [10]): 81.3% | % weed control, 7 day (Alfalfa [2]; [11]): 70.0% | % weed control, 14 day (Alfalfa [2]; [11]): 83.8% | % weed control, 21 day (Alfalfa [2]; [11]): 75.0% | % weed control, 28 day (Alfalfa [2]; [11]): 78.8% | % weed control, 7 day (Alfalfa [1]; [4]): 67.5% | % weed control, 14 day (Alfalfa [1]; [4]): 83.8% | % weed control, 21 day (Alfalfa [1]; [4]): 70.0% | % weed control, 28 day (Alfalfa [1]; [4]): 72.5% | % weed control, 7 day (Alfalfa [1]; [5]): 67.5% | % weed control, 14 day (Alfalfa [1]; [5]): 81.3% | % weed control, 21 day (Alfalfa [1]; [5]): 67.5% | % weed control, 28 day (Alfalfa [1]; [5]): 72.5% | % weed control, 7 day (Alfalfa [1]; [6]): 72.5% | % weed control, 14 day (Alfalfa [1]; [6]): 86.3% | % weed control, 21 day (Alfalfa [1]; [6]): 80.0% | % weed control, 28 day (Alfalfa [1]; [6]): 85.0% | % weed control, 7 day (Alfalfa [1]; [7]): 72.5% | % weed control, 14 day (Alfalfa [1]; [7]): 82.5% | % weed control, 21 day (Alfalfa [1]; [7]): 76.3% | % weed control, 28 day (Alfalfa [1]; [7]): 81.3% | % weed control, 7 day (Morning glory; [12]): 85.0% | % weed control, 14 day (Morning glory; [12]): 80.0% | % weed control, 21 day (Morning glory; [12]): 58.8% | % weed control, 28 day (Morning glory; [12]): 56.3% | % weed control, 7 day (Morning glory; [13]): 91.3% | % weed control, 14 day (Morning glory; [13]): 92.0% | % weed control, 21 day (Morning glory; [13]): 85.0% | % weed control, 28 day (Morning glory; [13]): 82.5% | % weed control, 7 day (Morning glory; [14]): 91.3% | % weed control, 14 day (Morning glory; [14]): 91.3% | % weed control, 21 day (Morning glory; [14]): 82.5% | % weed control, 28 day (Morning glory; [14]): 81.3% | % weed control, 7 day (Morning glory; [15]): 91.3% | % weed control, 14 day (Morning glory; [15]): 93.8% | % weed control, 21 day (Morning glory; [15]): 94.5% | % weed control, 28 day (Morning glory; [15]): 95.8%

COc1c(Cl)ccc(Cl)c1C(=O)O [Dicamba]
% weed control, 7 day (Alfalfa [2]; [8]): 0.0% | % weed control, 14 day (Alfalfa [2]; [8]): 20.0% | % weed control, 21 day (Alfalfa [2]; [8]): 20.0% | % weed control, 28 day (Alfalfa [2]; [8]): 12.5% | % weed control, 7 day (Alfalfa [2]; [9]): 0.0% | % weed control, 14 day (Alfalfa [2]; [9]): 20.0% | % weed control, 21 day (Alfalfa [2]; [9]): 20.0% | % weed control, 28 day (Alfalfa [2]; [9]): 12.5% | % weed control, 7 day (Alfalfa [2]; [10]): 0.0% | % weed control, 14 day (Alfalfa [2]; [10]): 50.0% | % weed control, 21 day (Alfalfa [2]; [10]): 75.0% | % weed control, 28 day (Alfalfa [2]; [10]): 55.0% | % weed control, 7 day (Alfalfa [2]; [11]): 0.0% | % weed control, 14 day (Alfalfa [2]; [11]): 50.0% | % weed control, 21 day (Alfalfa [2]; [11]): 75.0% | % weed control, 28 day (Alfalfa [2]; [11]): 55.0%
